Results published in patent US12268694B2, “Combination pharmaceutical agents as RSV inhibitors” (Enanta Pharmaceuticals, Inc., priority 2017, dated 2025).

System: genotype A, "Long" strain RSV
Assay: RSV-A assay: CPE protection in HEp-2 cells, ATPlite readout
Format: cell-based, human respiratory syncytial virus
Details: HEp-2 cells, RSV-A Long strain, ATPlite readout; read-out: Human RSV-A (“Long” strain) EC50
Method in brief: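 EC50 derives from ATPlite luminescence after 5-day culture of RSV Long-infected (MOI 0.1) HEp-2 cells, seeded 8,000/well, exposed to duplicate 2-fold compound series. CC50 comes from an identical plate receiving medium instead of virus.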

Row | SMILES | EC50 [nM]
1 | O=C1Nc2ccccc2C(c2ccccc2)=N[C@@H]1Nc1nnc(-c2ncc(C(F)(F)F)cc2N[C@H]2CC[C@H]2O)o1 [Example 417] | > 800
2 | O=C1Nc2ccccc2C(c2ccccc2)=N[C@@H]1Nc1nnc(-c2ncc(C(F)(F)F)cc2N[C@@H]2CC[C@@H]2O)o1 [Example 418] | > 800
3 | O=C1Nc2ccccc2C(c2ccccc2)=N[C@@H]1Nc1ncc(-c2ncc(C(F)(F)F)cc2N2CCOCC2)o1 [Example 442] | < 400
4 | O=C1Nc2ccccc2C(c2ccccc2)=N[C@@H]1Nc1nnc(-c2cn(-c3ccc(C(F)(F)F)nc3)nc2N2CCOCC2)o1 [Example 444] | < 400
5 | O=C1Nc2ccccc2C(c2ccccc2)=N[C@@H]1Nc1nnc(-c2cn(CC3CC3)nc2N2CCOCC2)o1 [Example 446] | < 400
6 | O=C1Nc2ccccc2C(c2ccccc2)=N[C@@H]1Nc1nnc(-c2cn(CC3CC3)nc2N2CCOCC2)o1 [Example 447] | 400 to 800

Same assay, conditions: human respiratory syncytial virus, HEp-2, read-out: Human RSV-A (“Long” strain) EC50

Row | SMILES | EC50 [nM]
7 | CCn1cc(-c2nnc(N[C@H]3N=C(c4ccccc4)c4ccccc4NC3=O)o2)c(N2CCOCC2)n1 [Example 401] | < 400
8 | COCCn1cc(-c2nnc(N[C@H]3N=C(c4ccccc4)c4ccccc4NC3=O)o2)c(N2CCOCC2)n1 [Example 402] | < 400
9 | O=C1Nc2ccccc2C(c2ccccc2)=N[C@@H]1Nc1nnc(-c2oc3ncccc3c2N2CCOCC2)o1 [Example 404] | < 400
10 | O=C1Nc2ccccc2C(c2ccccc2)=N[C@@H]1Nc1nnc(-c2nc(C3CCCCC3)sc2N2CCOCC2)o1 [Example 405] | < 400
11 | C#Cc1nc(-c2nnc(N[C@H]3N=C(c4ccccc4)c4ccccc4NC3=O)o2)c(N2CCOCC2)s1 [Example 406] | < 400
12 | COc1ccc2nccc(-c3nnc(N[C@H]4N=C(c5ccccc5)c5ccccc5NC4=O)o3)c2c1 [Example 408] | > 800
13 | COCc1ccc2nccc(-c3nnc(N[C@H]4N=C(c5ccccc5)c5ccccc5NC4=O)o3)c2c1 [Example 409] | > 800
14 | COc1ccn2ncc(-c3nnc(N[C@H]4N=C(c5ccccc5)c5ccccc5NC4=O)o3)c2c1 [Example 410] | > 800
15 | COCCc1cccn2ncc(-c3nnc(N[C@H]4N=C(c5ccccc5)c5ccccc5NC4=O)o3)c12 [Example 411] | > 800
16 | COCC(C)(C)Nc1cc(C(F)(F)F)cnc1-c1nnc(N[C@H]2N=C(c3ccccc3)c3ccccc3NC2=O)o1 [Example 414] | > 800
17 | COCC1(Nc2cc(C(F)(F)F)cnc2-c2nnc(N[C@H]3N=C(c4ccccc4)c4ccccc4NC3=O)o2)CC1 [Example 415] | > 800
18 | COC(C)(C)CNc1cc(C(F)(F)F)cnc1-c1nnc(N[C@H]2N=C(c3ccccc3)c3ccccc3NC2=O)o1 [Example 416] | > 800
19 | O=C1Nc2ccccc2C(c2ccccc2)=N[C@@H]1Nc1nnc(-c2ncc(C(F)(F)F)cc2NC[C@@H]2CCCO2)o1 [Example 419] | 400 to 800
20 | O=C1Nc2ccccc2C(c2ccccc2)=N[C@@H]1Nc1nnc(-c2ncc(C(F)(F)F)cc2NC[C@H]2CCCO2)o1 [Example 420] | < 400
21 | O=C1Nc2ccccc2C(c2ccccc2)=N[C@@H]1Nc1nnc(-c2ncc(C(F)(F)F)cc2NCc2ccco2)o1 [Example 421] | > 800
22 | O=C1Nc2ccccc2C(c2ccccc2)=N[C@@H]1Nc1nnc(-c2ncc(C(F)(F)F)cc2N[C@H]2CCC[C@H]2O)o1 [Example 422] | 400 to 800
23 | O=C1Nc2ccccc2C(c2ccccc2)=N[C@@H]1Nc1nnc(-c2ncc(C(F)(F)F)cc2N[C@@H]2CCC[C@@H]2O)o1 [Example 423] | 400 to 800
24 | CC1(Nc2cc(C(F)(F)F)cnc2-c2nnc(N[C@H]3N=C(c4ccccc4)c4ccccc4NC3=O)o2)CCOC1 (stereo partly shown) [Example 424] | > 800
25 | O=C1Nc2ccccc2C(c2ccccc2)=N[C@@H]1Nc1nnc(-c2cn(-c3cccnc3)nc2N2CCOCC2)o1 [Example 425] | < 400
26 | COCCn1ccc2cccc(-c3nnc(N[C@H]4N=C(c5ccccc5)c5ccccc5NC4=O)o3)c21 [Example 426] | > 800
27 | O=C1Nc2ccccc2C(c2ccccc2)=N[C@@H]1Nc1nnc(-c2nc(-c3ccccc3F)sc2N2CCOCC2)o1 [Example 427] | < 400

Row | SMILES | EC50 [nM]
28 | O=C1Nc2ccccc2C(c2ccccc2)=N[C@@H]1Nc1nnc(-c2nc(-c3ccc(F)cc3)sc2N2CCOCC2)o1 [Example 428] | < 400
29 | O=C1Nc2ccccc2C(c2ccccc2)=N[C@@H]1Nc1nnc(-c2cn(C3CCC3)nc2N2CCOCC2)o1 [Example 430] | < 400
30 | O=C1Nc2ccccc2C(c2ccccc2)=N[C@@H]1Nc1nnc(-c2cn(-c3ccccn3)nc2N2CCOCC2)o1 [Example 431] | < 400
31 | Cc1cc(-c2nnc(N[C@H]3N=C(c4ccccc4)c4ccccc4NC3=O)o2)n(C2CCOCC2)n1 [Example 432] | > 800
32 | O=C1Nc2ccccc2C(c2ccccc2)=N[C@@H]1Nc1nnc(-c2nc3ccccc3nc2N2CCOCC2)o1 [Example 433] | < 400
33 | O=C1Nc2ccccc2C(c2ccccc2)=N[C@@H]1Nc1nnc(-c2cc3ccccc3nc2N2CCOCC2)o1 [Example 434] | < 400
34 | N#Cc1ccc2nccc(-c3nnc(N[C@H]4N=C(c5ccccc5)c5ccccc5NC4=O)o3)c2c1 [Example 435] | > 800
35 | CO[C@@H]1COC[C@H]1Nc1cc(C(F)(F)F)cnc1-c1nnc(N[C@H]2N=C(c3ccccc3)c3ccccc3NC2=O)o1 [Example 436] | < 400
36 | CC(C)(O)c1nc(-c2nnc(N[C@H]3N=C(c4ccccc4)c4ccccc4NC3=O)o2)c(N2CCOCC2)s1 [Example 437] | < 400
37 | COCCN1CCCn2ncc(-c3nnc(N[C@H]4N=C(c5ccccc5)c5ccccc5NC4=O)o3)c21 [Example 438] | 400 to 800
38 | COC1C2CN(c3cc(C(F)(F)F)cnc3-c3nnc(N[C@H]4N=C(c5ccccc5)c5ccccc5NC4=O)o3)CC21 (stereo partly shown) [Example 439] | > 800
39 | O=C1Nc2ccccc2C(c2ccccc2)=N[C@@H]1Nc1nnc(-c2cn(-c3ccc(C(F)(F)F)cn3)nc2N2CCOCC2)o1 [Example 440] | 400 to 800
40 | N#Cc1ccn2ncc(-c3nnc(N[C@H]4N=C(c5ccccc5)c5ccccc5NC4=O)o3)c2c1 [Example 441] | > 800
41 | O=C1Nc2ccccc2C(c2ccccc2)=N[C@@H]1Nc1nnc(-c2cn(-c3ccc(F)cn3)nc2N2CCOCC2)o1 [Example 448] | < 400
42 | COCc1ccn2ncc(-c3nnc(N[C@H]4N=C(c5ccccc5)c5ccccc5NC4=O)o3)c2c1 [Example 449] | > 800
43 | O=C1Nc2ccccc2C(c2ccccc2)=NC1Nc1nnc(-c2ncc(C(F)(F)F)cc2CCO)o1 (stereo not shown) [Example 450] | > 800
44 | COC[C@@H](C)Nc1sc(C(F)(F)F)nc1-c1nnc(N[C@H]2N=C(c3ccccc3)c3ccccc3NC2=O)o1 [Example 451] | 400 to 800
45 | CO[C@@H](C)CNc1sc(C(F)(F)F)nc1-c1nnc(N[C@H]2N=C(c3ccccc3)c3ccccc3NC2=O)o1 [Example 452] | < 400
46 | O=C1Nc2ccccc2C(c2ccccc2)=N[C@@H]1Nc1nnc(-c2nc(C(F)(F)F)sc2C2=CCOCC2)o1 [Example 453] | < 400
47 | O=C1Nc2ccccc2C(c2ccccc2)=N[C@@H]1Nc1nnc(-c2nc(C(F)(F)C(F)(F)F)sc2N2CCOCC2)o1 [Example 454] | < 400
48 | O=C1Nc2ccccc2C(c2ccccc2)=N[C@@H]1Nc1nnc(-c2nc(C3(O)CCC3)sc2N2CCOCC2)o1 [Example 455] | < 400

Row | SMILES | EC50 [nM]
49 | COC[C@H]1CCCN1c1sc(C(F)(F)F)nc1-c1nnc(N[C@H]2N=C(c3ccccc3)c3ccccc3NC2=O)o1 [Example 456] | > 800
50 | COC[C@@H]1CCCN1c1sc(C(F)(F)F)nc1-c1nnc(N[C@H]2N=C(c3ccccc3)c3ccccc3NC2=O)o1 [Example 457] | > 800
51 | CC(C)(c1nc(-c2nnc(N[C@H]3N=C(c4ccccc4)c4ccccc4NC3=O)o2)c(N2CCOCC2)s1)N1CCOCC1 [Example 459] | < 400
52 | O=C1Nc2ccccc2C(c2ccccc2)=N[C@@H]1Nc1nnc(-c2nc(C3(C(F)(F)F)CC3)sc2N2CCOCC2)o1 [Example 460] | < 400
53 | O=C1Nc2ccccc2C(c2ccccc2)=NC1Nc1nnc(-c2ncc(C(F)F)cc2N2CCOCC2)o1 (stereo not shown) [Example 461] | < 400
54 | O=C1Nc2ccccc2C(c2ccccc2)=NC1Nc1cc(-c2ccccc2)cnn1 (stereo not shown) [Example 462] | > 800
55 | O=C1Nc2ccccc2C(c2ccccc2)=NC1Nc1cc(N2CCOCC2)cnn1 (stereo not shown) [Example 463] | > 800
56 | O=C1Nc2ccccc2C(c2ccccc2)=N[C@@H]1Nc1nnc(-c2ncc(C(F)(F)F)cc2N[C@@H]2CCOC2)o1 [Example 464] | < 400
57 | Cc1nsc(N2CCOCC2)c1-c1nnc(N[C@H]2N=C(c3ccccc3)c3ccccc3NC2=O)o1 [Example 465] | 400 to 800
58 | O=C1Nc2ccccc2C(c2ccccc2)=N[C@@H]1Nc1nnc(-c2ncc(C(F)(F)F)cc2N2CCOc3ccccc32)o1 [Example 468] | > 800
59 | O=C1Nc2ccccc2C(c2ccccc2)=N[C@@H]1Nc1nnc(-c2ncc(C(F)(F)F)cc2NC2COC2)o1 [Example 469] | < 400
60 | O=C1Nc2ccccc2C(c2ccccc2)=N[C@@H]1Nc1nnc(-c2ncc(C(F)(F)F)cc2N[C@H]2CCOC2)o1 [Example 470] | > 800
61 | COCCNc1sccc1-c1nnc(N[C@H]2N=C(c3ccccc3)c3ccccc3NC2=O)o1 [Example 472] | > 800
62 | COCCNc1sc(C(F)(F)F)nc1-c1nnc(N[C@H]2N=C(c3ccccc3)c3ccccc3NC2=O)o1 [Example 473] | < 400
63 | O=C1Nc2ccccc2C(c2ccccc2)=N[C@@H]1Nc1nnc(-c2nc(C(F)(F)F)sc2N[C@@H]2CCOC2)o1 [Example 474] | < 400
64 | O=C1Nc2ccccc2C(c2ccccc2)=N[C@@H]1Nc1nnc(-c2nc(C(F)(F)F)sc2NCC2COC2)o1 [Example 475] | 400 to 800
65 | O=C1Nc2ccccc2C(c2ccccc2)=N[C@@H]1Nc1nnc(-c2oc3cc(F)ccc3c2N2CCOCC2)o1 [Example 476] | 400 to 800
66 | O=C1Nc2ccccc2C(c2ccccc2)=N[C@@H]1Nc1nnc(-c2oc3cccc(F)c3c2N2CCOCC2)o1 [Example 477] | < 400
67 | CC1(c2nc(-c3nnc(N[C@H]4N=C(c5ccccc5)c5ccccc5NC4=O)o3)c(N3CCOCC3)s2)CCC1 [Example 478] | < 400
